These results are taken from US10577362B2, “Substituted 2, 4-diamino-quinoline derivatives for use in the treatment of proliferative diseases” (GENOSCIENCE PHARMA, priority 2016, dated 2020).

Structures are written as SMILES.

Assay [1] relates to HCT-116 (colorectal carcinoma) cell line. The experiment in a line: CellTiter-Glo luminescent cell viability assay, HCT-116. The assay is classed as cell-based, human. As to conditions: Homo sapiens; for viability at 4 µM: HCT-116, compound at 4 μM; for viability at 4 µM / viability at 10 µM: 72 h; for viability at 10 µM: HCT-116, compound at 10 μM. In a few lines:
(§1)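 Adherent lines plated overnight, MOLM-14 (suspension) 1 h before dosing, in medium with 10% FBS at 37 °C, 5% CO2. Compounds added at varying concentrations for 72 h; CellTiter-Glo luminescence read, EC50 as dose reducing signal to 50% of diluent-treated cells, at least duplicate points.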

Assay [2] has as its system A375 (malignant melanoma) cell line. The experiment in a line: CellTiter-Glo luminescent cell viability assay, A375. The assay is classed as cell-based, human. As to conditions: Homo sapiens, A-375; for viability at 4 µM: A375, compound at 4 μM; for viability at 4 µM / viability at 10 µM: 72 h; for viability at 10 µM: A375, compound at 10 μM. The essentials:
as §1
For orientation: In ATP-based viability assays light output follows the ATP content of the culture.

The subject of assay [3] is MOLM-14 (acute myeloid leukemia) cell line. Description: CellTiter-Glo luminescent cell viability assay, MOLM-14. The class given is cell-based, human. The settings on record: Homo sapiens; for viability at 4 µM: MOLM-14, compound at 4 μM; for viability at 4 µM / viability at 10 µM: 72 h; for viability at 10 µM: MOLM-14, compound at 10 μM. The essentials: (§2)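 Cells were cultured at 37 °C, 5% CO2 with 10% FBS; adherent lines were plated overnight, suspension MOLM-14 plated 1 h before dosing. Compounds in H2O or DMSO were added at various concentrations for 72 h, and viability was read by luminescence. EC50 is the dose reducing signal to 50% of diluent control.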

Assay [4] has as its system PANC-1 (prancreatic carcinoma) cell line. Description: CellTiter-Glo luminescent cell viability assay, PANC-1. The assay is classed as cell-based. The settings on record: Homo sapiens, 72 h, % of signal of diluent-treated cultures; for viability at 4 µM: PANC-1, 4 μM; for viability at 10 µM: PANC-1, 10 μM. In a few lines: as §2
The test system of assay [5] is 786-O (renal adenocarcinoma) cell line. Description: CellTiter-Glo luminescent cell viability assay, 786-O. The assay is classed as cell-based, human. The settings on record: Homo sapiens, 786-0; for viability at 4 µM / viability at 10 µM: 786-O, 72 h; for viability at 4 µM: compound at 4 μM; for viability at 10 µM: compound at 10 μM. In a few lines:
as §1

Assay [6] deals with Huh7 (hepatocellular carcinoma) cell line. The experiment in a line: CellTiter-Glo luminescent cell viability assay, Huh7. The settings on record: Homo sapiens, Huh-7; for viability at 4 µM: Huh7, compound at 4 μM; for viability at 4 µM / viability at 10 µM: 72 h; for viability at 10 µM: Huh7, compound at 10 μM. The assay is classed as cell-based, human. In a few lines:
as §2

In assay [7] the test system is HepG2 (hepatocellular carcinoma) cell line. Description: CellTiter-Glo luminescent cell viability assay, HepG2. The assay is classed as cell-based, human. The settings on record: Homo sapiens; for viability at 4 µM / viability at 10 µM: HepG2, HepG, 72 h; for viability at 4 µM: compound at 4 μM; for viability at 10 µM: compound at 10 μM. In a few lines: as §2

Regarding `CC(C)(C)NC1CCN(c2c(C#N)c(NCc3cccnc3)nc3ccccc23)CC1` [Compound 3304CN, 2-[(pyridin-3-ylmethyl)amino]-3-cyano-4-[4-(tert-butylamino)piperidin-1-yl]quinoline], the viability (usually a read-out of living cells in per cent, often relative to untreated cells) at 4 µM in assay [1] was found to be 70.6%; in assay [2], 99.5%; in assay [3], 94.2%; in assay [4], 99.3%; in assay [5] it was 98.9%; in assay [6], 93.3%. Further, the viability at 4 µM in assay [7] amounted to 91.2%. For the same compound, the viability at 10 µM came out at 41.6% in assay [1]; 74.4% in assay [2]; 81% in assay [3]; 98.7% in assay [4]; 80.7% in assay [5]; 82.8% in assay [6]. Also, in assay [7], the viability at 10 µM worked out at 83.4%.
With `CC(C)(C)NC1CCN(c2c(C#N)c(Nc3ccccn3)nc3ccccc23)CC1` [Compound 3278CN, 2-(pyridin-2-ylamino)-3-cyano-4-[4-(tert-butylamino)piperidin-1-yl]quinoline], the viability at 4 µM in assay [1] came out at 85.7%; in assay [2] it was 90.6%; in assay [3], 96.1%; in assay [4], 102%; in assay [5], 90.2%; in assay [6] it was 95%. The viability at 4 µM in assay [7] was 87.1%. The viability at 10 µM was determined as 7.2% in assay [1]; 45.2% in assay [2]; 88.6% in assay [3]; 84.2% in assay [4]; 68.2% in assay [5]; 51% in assay [6]. In assay [7], the viability at 10 µM was determined as 53.2%.
As to `CC(C)(C)NC1CCN(c2c(C#N)c(NCc3ccncc3)nc3ccccc23)CC1` [Compound 3306CN, 2-[(pyridin-4-ylmethyl)amino]-3-cyano-4-[4-(tert-butylamino)piperidin-1-yl]quinoline], the viability at 4 µM in assay [1] came out at 83.9%; in assay [2], 79.2%; in assay [3], 97.6%; in assay [4] it was 101%; in assay [5] it was 84%; in assay [6] it was 91.7%. The viability at 4 µM in assay [7] was 83.4%. For the same compound, the viability at 10 µM in assay [1] was 72.6%; in assay [2] it was 77.4%; in assay [3] it was 94.5%; in assay [4], 93.3%; in assay [5], 71.7%; in assay [6], 82.4%. Besides, in assay [7], the viability at 10 µM was determined as 71.6%.
Regarding `N#Cc1c(NCc2ccc(Cl)cc2)nc2ccccc2c1N1CCC(N)C1` (centres unmarked) [Compound 3190CN, 2-(4-chloro-benzylamino)-3-cyano-4-[3-amino-pyrrolidin-1-yl]quinoline], the viability at 4 µM in assay [1] was 75.2%; in assay [2], 87.3%; in assay [3], 78.1%; in assay [4] it was 93.7%; in assay [5], 90.6%; in assay [6], 92.7%. Besides, the viability at 4 µM in assay [7] came out at 95.5%. The viability at 10 µM in assay [1] came to 0.4%; in assay [2] it was 0.8%; in assay [3] it was 2.1%; in assay [4], 56.1%; in assay [5] it was 1.6%; in assay [6], 1.3%. For the same compound, the viability at 10 µM in assay [7] is 16%. Also, the EC50 – broadly, the concentration that produces a half-maximal response – in assay [1] (HCT-116 cell line, 72 h incubation, CellTiter-Glo, read-out: EC50, growth inhibition of HCT-116) lay within 5 to 10 µM; in assay [2] (A375 cell line, 72 h incubation, CellTiter-Glo, read-out: EC50, growth inhibition of A375), 5 to 10 µM; in assay [3] (MOLM-14 cell line, 72 h incubation, CellTiter-Glo, read-out: EC50, growth inhibition of MOLM-14), 5 to 10 µM; in assay [5] (786-O cell line, 72 h incubation, CellTiter-Glo, read-out: EC50, growth inhibition of 786-O), 5 to 10 µM; in assay [6] (Huh7 cell line, 72 h incubation, CellTiter-Glo, read-out: EC50, growth inhibition of Huh7), 5 to 10 µM; in assay [7] (HepG2 cell line, 72 h incubation, CellTiter-Glo, read-out: EC50, growth inhibition of HepG2) it was 5 to 10 µM.
